Assay results reported in US5101059A, “Amino acid protecting groups” (Research Corporation Technologies, Inc., priority 1989, dated 1992).

Key:
Type in all cases: physicochemical
[1] = HPLC monitoring of the deblocking of Nε-(9-xanthenylmethoxycarbonyl)-L-lysine by TBD; settings: TBD 20 eq., pyridine and DMF, room temperature
Description: B. HPLC Monitoring of the Deblocking of N^ε -(9-Xanthenylmethoxycarbonyl)-L-lysine by TBD: A mixture of […] of H-Lys(Xmoc)-OH and 150 mg (20 eq.) of 1,5,9-triazabicyclo[4,4,0]dec-5-ene (TBD) in 0.3 mL of pyridine and 0.3 mL of DMF was stirred at room temperature. A 20 μL portion of the mixture was neutralized with a solution of 0.3 mL of 5% HCl and 0.3 mL of methanol, filtered, and injected for HPLC analysis which was carried out on a Waters Radial Pak 10-μm C18 reverse phase column (0.8×10 cm) under the following conditions:
Mobile phase: 65% methanol and 35% TFA (0.1% in water)

[2] = Piperidine deblocking of bis(9-fluorenyl)methyl carbanilate; settings: piperidine 48.5 eq., anhydrous ether, room temperature
Description: B. Piperidine Deblocking of Bis(9-fluorenyl)methyl Carbanilate: To a suspension of 20 mg (0.042 mmol) of αF-Fmoc-analine in 0.2 mL of anhydrous ether was added 0.2 mL (2.02 mmol, 48.5 eq.) of piperidine. The mixture was stirred at room temperature and monitored by TLC with an eluant consisting of Skelly B--CH2 Cl2 (1:1). […] No attempt was made to isolate the individual component of the final reaction mixture.

[3] = Stability of difluorenyl derivatives in trifluoroacetic acid; settings: TFA 500 eq.
Description: C. Stability of FM-Fmoc-analine in Trifluoroacetic Acid: To a solution of 51.3 mg of FM-Fmoc-analine in 6 mL of CHCl3 was added 4 mL (500 eq.) of trifluoroacetic acid. The mixture was stirred at room temperature and monitored by TLC with an eluant consisting of Skelly B--ether (2:1). No change was noted after two days. The mixture was diluted with 10 mL of chloroform, and washed with H2 O (2×15 mL) and sat'd NaHCO3 (2×15 mL). […] 241°-243° C., the ^1 H NMR and IR spectra of which matched that of an authentic sample.
D. Stability of Bis(9-fluorenyl)methyl Carbanilate Towards Trifluoroacetic Acid: To a solution of 100 mg of α-F-Fmoc-analine in 12 mL of chloroform was added 8 mL (500 eq.) of trifluoroacetic acid. The mixture was stirred at room temperature and monitored by TLC with an eluant consisting of Skelly B--ether (2:1). No change was noted after 24 hours. The mixture was washed with water (2×10 mL), sat'd NaHCO3 (3×10 mL), and water (10 mL). […] 223°-226° C. (dec.), the ^1 H NMR and IR spectra of which matched that of an authentic sample.

[4] = Base deblocking of substituted urethanes (U-PCA) by various amines; settings: dichloromethane, room temperature
From the text: 1. General Procedure for Studying the Base Deblocking of the Urethanes Fmoc-PCA, BTS-Fmoc-PCA, DT-Fmoc-PCA, and TMS-Fmoc-PCA: A mixture of urethane (0.05 mmol) in a solution prepared from an equal volume of base (2.5 mmol, 50 eq.) and dichloromethane was stirred at room temperature. The course of the reaction was monitored by TLC with an eluant consisting of Skelly B--ether (3:1).

[5] = Stability of substituted Fmoc-PCA in acetic acid; settings: glacial acetic acid 10 eq., CH2Cl2, room temperature, 48 hours
Description: 2. […] The mixture was stirred at room temperature for 48 hours. […] The mixture was washed with half sat'd NaHCO3 (2×10 mL) and water (10 mL). […] 161°-163° C., the IR and ^1 H NMR spectra of which matched that of an authentic sample.
3. Stability of 9-Trimethylsilyl-9-[…] p-Chlorocarbanilate in Acetic Acid: To a solution of 0.37 g of TMS-Fmoc-PCA in 10 mL of CH2 Cl2 was added 0.5 mL (10 eq.) of glacial acetic acid. The mixture was stirred at room temperature. […] The mixture was washed with half sat'd NaHCO3 (2×10 mL) and H2 O (10 mL). […] 124°-126° C., the ^1 H NMR and IR spectra of which matched that of an authentic sample.

[6] = Protolysis of BTS-Fmoc-PCA in trifluoroacetic acid; settings: TFA 10.7 eq., CH2Cl2, room temperature, 12 hours
Description: 4. Protolysis of 2,7-Bis(trimethylsilyl)-9-fluoroenylmethyl p-Chlorocarbanilate in Trifluoroacetic Acid: To a solution of 0.3 g of BTS-Fmoc-PCA in 8 mL of CH2 Cl2 was added dropwise a solution of 0.5 mL (10.7 eq.) of trifluoroacetic acid in 3.0 mL of methylene chloride over a period of 10 minutes. The mixture was stirred at room temperature for 12 hours, washed with water (2×10 mL), and neutralized with sat'd NaHCO3 (2×10 mL). […] Recrystallization from EtOAc--Skelly B (2:1) gave 0.16 g (75.3%) of the pure urethane as colorless needles, m.p. 184°-185° C., identified by mixture melting point, and IR and NMR spectral comparisons with an authentic sample.

[7] = Stability of FM-Fmoc-aniline towards catalytic hydrogenolysis; settings: 5% Pd/C, 45 psi hydrogen, 24 hours
Description: E. Stability of FM-Fmoc-aniline Towards Catalytic Hydrogenolysis: To a mixture of 100 mg of FM-Fmoc-aniline and 63.9 mg of Fmoc-aniline in 30 mL of freshly distilled THF and 15 mL of 100% EtOH was added 30 mg of 5% palladium on charcoal. The mixture was shaken under hydrogen at a pressure of 45 psi in a Parr apparatus for 24 hours. […] Recrystallization of the latter from ethyl acetate gave 89.1 mg (89.1%) of the pure FM-Fmoc-anilineas white crystals, m.p. 243°-244° C. the ^1 H NMR and IR spectra of which matched that of an authentic sample.

[8] = Base deblocking and stability of 9-xanthenylmethyl and 9,10-dihydro-9-anthracenylmethyl derivatives; settings: room temperature
Description: 1. Deblocking of Xmoc-PCA in 1,5,9-Triazabicyclo[4,4,0]dec-5-ene Solution: To a solution of 7.90 mg (0.0216 mmol) of Xmoc-PCA in 0.6 mL of pyridine was added 0.15 g (1.078 mmol 50 eq.) of 1,5,9-triazabicyclo[4,4,0]dec-5-ene (TBD). The mixture was stirred at room temperature and monitored by TLC with an eluant consisting of Skelly B--EtOAc (3:1). Complete deblocking had occurred after 25 minutes.
2. Base Deblocking of 9-Xanthenylmethyl Phenylacetate: a. In Piperdine Solution: To a solution of 13.39 mg of 9-XM-phenylacetate in 1.6 mL of DMF was added 0.4 mL (100 eq.) of piperidine. The mixture was stirred at room temperature. […] In DBU Solution: To a solution of 6.36 mg of 9-XM-phenylacetate in 0.9 mL of DMF was added 0.3 mL of 1,8-diazabicyclo[5,4,0]-undec-7-ene (DBU) (100 eq.). The mixture was stirred at room temperature. […] In TBD Solution: To a solution of 7.91 mg of 9-XM-phenylacetate in 0.3 mL of pyridine was added 100 mg (30 eq.) of 1,5,9-triazabicyclo[4,4,0]dec-5-ene. The mixture was stirred at room temperature.
1. General Procedure for Studying the Stabilities of DHAmoc-PCA, Xmoc-PCA, and DC-Xmoc-PCA in Piperidine Solution To a solution of urethane (0.0294 mmol) in 1.2 mL of DMF was added 0.3 mL (2.94 mmol, 100 eq.) of piperidine. The mixture was stirred at room temperature and monitored by TLC with an eluant consisting of Skelly B--EtOAc (3:1). Evidence for initiation of the deblocking required 2 minutes for DC-Xmoc-PCA, 3.5 hours for Xmoc-PCA, and 7 hours for DHAmoc-PCA.
2. General Procedure for Studying the Deblocking of Xmoc-PCA and DHAmoc-PCA in DBU Solution: To a solution of urethane (0.0324 mmol) in 0.5 mL of DMF was added 0.5 mL (3.24 mmol, 100 eq.) of 1,8-diazabicyclo[5,4,0]undec-7-ene. The mixture was stirred at room temperature and monitored by TLC with the eluant consisting of Skelly B--EtOAc (3:1). The time needed to complete the deblocking was 3.5 hours for Xmoc-PCA, and 6 hours for DHAmoc-PCA.

[9] = Stability of xanthenylmethyl and dihydroanthracenylmethyl derivatives in trifluoroacetic acid; settings: TFA 40 eq., deuterated chloroform, room temperature, 3 days
Description: 3. Stability of Xanthenylmethyl p-Chlorocarbanilate in Trifluoroacetic Acid: To a solution of 35.61 mg of Xmoc-PCA in 0.2 mL of deuterated chloroform was added 0.3 mL (40 eq.) of trifluoroacetic acid. The mixture was transferred to an NMR tube and allowed to stand at room temperature. The reaction was monitored by NMR spectroscopy (Varian A-60A, 60 MHz) and TLC with an eluant consisting of Skelly B--ethyl acetate (4:1). No change was noted after 3 days.
4. Stability of 9-Xanthenylmethyl Phenylacetate in Trifluoroacetic Acid: To a solution of 21.4 mg of 9-XM phenylacetate in 0.2 mL of deuterated chloroform was added 0.2 mL (40 eq.) of trifluoroacetic acid. The mixture was transferred to an NMR tube and let stand at room temperature. The reaction was monitored by NMR (Varian A-60A, 60 MHz) spectroscopy and TLC analysis with an eluant consisting of Skelly B--ether (2:1). No change was noted after 3 days.
1. Stability of 9,10-Dihydro-9-anthracenylmethyl p-Chlorocarbanilate in Trifluoroacetic Acid: To a solution of 23.61 mg of DHAmoc-PCA in 0.2 mL of deuterated chloroform was added 0.2 mL (40 eq.) of trifluoroacetic acid. The mixture was transferred to an NMR tube and allowed to stand at room temperature. The reaction was monitored by NMR spectroscopy (Varian A-60A, 60 MHz) and TLC with an eluant consisting of Skelly B--EtOAc (3:1). No change was noted after 4 days.

[10] = chloroform, room temperature, 24 hours
[11] = CHCl3, room temperature, two days

N[C@@H](CCCCNC(=O)OCC1c2ccccc2Oc2ccccc21)C(=O)O [H-Lys(Xmoc)-OH, N^ε -(9-Xanthenylmethoxycarbonyl)-L-lysine]
time after which no starting material was left (HPLC) [1]: ≤ 4.5 h

O=C(Nc1ccccc1)OC(C1c2ccccc2-c2ccccc21)C1c2ccccc2-c2ccccc21 [α-F-Fmoc-aniline, Bis(9-fluorenyl)methyl Carbanilate]
time for total decomposition of the urethane [2]: ≤ 10 min | recovered urethane [3, 10]: 98.3% | stability in trifluoroacetic acid (TLC) [3, 10]: No change

C[Si](C)(C)c1ccc2c(c1)C(COC(=O)Nc1ccc(Cl)cc1)c1cc([Si](C)(C)C)ccc1-2 [BTS-Fmoc-PCA, 2,7-Bis(trimethylsilyl)-9-fluorenylmethyl p-Chlorocarbanilate]
Time for Complete Deblocking ([4]; ethanolamine 50 eq.): 90 min | Time for Complete Scavenging of Dibenzofulvene Analogs ([4]; morpholine 50 eq.): 3.5 hr | Time for Complete Deblocking ([4]; morpholine 50 eq., significant aminodibenzofulvene type adduct formed): 190 min | Time for Complete Scavenging of Dibenzofulvene Analogs ([4]; piperidine 50 eq.): 40 min | Time for Complete Deblocking ([4]; piperidine 50 eq., significant aminodibenzofulvene type adduct formed): < 3 min | Time for Complete Deblocking ([4]; t-butylamine 50 eq.): 270 min | recovered urethane [5]: 95.35% | stability in acetic acid (TLC) [5]: no change | product of protolysis in trifluoroacetic acid [6]: 9-fluorenylmethyl p-chlorocarbanilate

O=C(Nc1ccccc1)OCC1(CC2c3ccccc3-c3ccccc32)c2ccccc2-c2ccccc21 [FM-Fmoc-aniline, 9-(9'-Fluorenylmethyl)-9-fluorenylmethyl Carbanilate]
recovered urethane [3, 11]: 97.1% | stability in trifluoroacetic acid (TLC) [3, 11]: No change | recovered urethane [7]: 99.4%

O=C(Cc1ccccc1)OCC1c2ccccc2Oc2ccccc21 [9-XM-phenylacetate, 9-Xanthenylmethyl Phenylacetate]
Time for Complete Deblocking ([8]; DBU 100 eq., DMF): ≤ 90 min | Time for Complete Deblocking ([8]; TBD 30 eq., pyridine): ≤ 27 min | stability in piperidine solution (TLC) ([8]; piperidine 100 eq., DMF, 2 days): no change | stability in trifluoroacetic acid (NMR, TLC) [9]: No change
